# Test results published in paper PMC3024946, “Hydroxyproline-containing collagen analogs trigger the release and activation of collagen-sequestered proMMP-2 by competition with prodomain-derived peptide P33-42” (Fibrogenesis & Tissue Repair, 2011).
# Columns and labels:
# ActMMP-9 = assay: Solid-phase binding of [125I]-actMMP-9 to immobilized collagens/peptides (microwells); set-up: species or system human; conditions: ActMMP-9, 2 ng/well; coated wells; 4°C, 2 h; residual radioactivity; mean ± SD, at least five experiments in triplicate
# Procedure: (§1) Human recombinant proMMPs and in vitro activated MMPs were obtained from Invitek and were labeled with the [^125I]-Bolton-Hunter reagent according to the manufacturer's instructions (PerkinElmer, Rodgau, Germany) before the buffer was exchanged for phosphate-buffered saline (PBS) with 0.05% (vol/vol) Tween 20 by gel filtration as described previously. Specific radioactivity for [^125I]-MMPs was 3-9 × 10^4 cpm/ng. Precipitation with 10% (wt/vol) trichloroacetic acid and 200 μg of BSA recovered 96% to 100% of protein-bound radioactivity. Aliquots of labeled MMPs were frozen and stored at -80°C. The activity and integrity were checked by substrate gel zymography using SDS-PAGE and autoradiography with overnight exposure to Biomax MS film (Kodak, Stuttgart, Germany) (Figure 2A).
# (§2) Native human CI, CIII and CVI were purified from skin tissue and placenta. The CI single chains α1(I) and α2(I) were obtained and modified as described previously. To prepare defined fragments, 2 mg of α1(I) were dissolved in 1 ml of 70% (vol/vol) formic acid at room temperature, the tubes were flushed with nitrogen for 10 min, and then 2 mg of CB were added. After incubation for 4 h at 37°C, free CB was neutralized and the samples were lyophilized. The peptides CB3, CB6, CB7 and CB8 were separated from the reaction mixture by gel filtration followed by ion-exchange chromatography. The resulting peptides were characterized by amino acid analysis and SDS-PAGE [45, 46]. The CB peptides had the following melting temperatures: CB3, 23.9°C; CB6, 26.7°C; CB7, 28.1°C; and CB8, 28.0°C [31].
# (§3) The following collagen analogs and control peptides were synthesized as described previously: (GPO)10, H-Gly-Cys-Hyp-(Gly-Pro-Hyp)10-Gly-Cys-Hyp-Gly-NH2; (GPP)10, H-Gly-Cys-Pro-(Gly-Pro-Pro)10-Gly-Cys-Pro-Gly-NH2; and GAP, H-Gly-Ala-Cys-(Gly-Ala-Pro)5-Gly-Phe-Hyp-Gly-Glu-Arg-(Gly-Ala-Pro)5-NH2. Peptides (POG)10, (PPG)10 and (POG)5 were purchased from Peptide International (Louisville, KY, USA). Spontaneous triple-helix assembly was approved by polarimetry over a 10-cm path length at 1°C/min in 10 mM phosphate buffer, pH 7.4. At 5 mg/ml, midpoints of melting curves occurred at 82.3 ± 1.4°C for (GPO)10 and at 45.8 ± 0.8°C for (GPP)10. […] Graphs were calculated from the primary data using a custom fitting program written by D.A. Slatter (Department of Biochemistry, University of Cambridge, Cambridge, UK [48]) to model different possible transitions. All collagens, CI derivatives and peptides were stored in stock solutions of 2 mg/ml in 150 mM acetic acid at -20°C.
# (§4) ProMMP-2 and proMMP-9 or actMMP-2 and actMMP-9 were bound to nitrocellulose and polystyrene-immobilized native collagens, CI chains, CB peptides or structural analogs. Serial dilutions of collagens or CI derivatives in 150 mM acetic acid were dotted at 3 × 3 μl to a nitrocellulose membrane with high protein-binding capacity (GE Healthcare, Munich, Germany). Air-dried membranes were blocked with PBS and 0.3% (vol/vol) Tween 20 overnight at 4°C, washed three times, and incubated with 1 ng/ml [^125I]-pro- and actMMP-2 and pro- and actMMP-9 in PBS and 0.3% (vol/vol) Tween 20 for 2 h at room temperature. Membranes were washed again and air-dried, and bound MMP was monitored by autoradiography. In parallel, polystyrene microtiter plates (Dynex, Chantilly, VA, USA) were coated with collagen proteins and peptides. Here 2 μg/well or 200 ng/well proteins and peptides or BSA as control were immobilized in 100 μl of 50 mM ammonium bicarbonate buffer, pH 9.6, by overnight incubation at 4°C. Immobilization efficacies were 20% to 45% of total proteins. Wells were washed three times with PBS, and nonspecific binding sites were blocked with PBS and 0.05% (vol/vol) Tween 20 for 1 h at room temperature. All incubation steps were performed with 2 ng of [^125I]-MMPs at 4°C for 2 h. […]
# ProMMP-9 = assay: Solid-phase binding of [125I]-proMMP-9 to immobilized collagens/peptides (microwells); set-up: species or system human; conditions: for Binding of [125I]-MMPs: ProMMP-9, 2 ng/well, coated wells, 4°C, 2 h, residual radioactivity, mean ± SD, at least five experiments in triplicate
# Procedure: as §1, §2, §3, §4
Substance,Binding of [125I]-MMPs (ActMMP-9),Binding of [125I]-MMPs (ProMMP-9),binding of proMMP vs respective actMMP (ProMMP-9; proMMP-9 vs actMMP-9 (stated jointly for MMP-2 and MMP-9))
"H-Gly-Cys-Hyp-(Gly-Pro-Hyp)10-Gly-Cys-Hyp-Gly-NH2 [(GPO)10, triple-helical Hyp-containing collagen analog]",5.4 ± 0.6 % of maximum control,36.1 ± 1.7 % of maximum control,two- to sevenfold more strongly
"H-Gly-Cys-Pro-(Gly-Pro-Pro)10-Gly-Cys-Pro-Gly-NH2 [(GPP)10, Triple-helical Gly-Pro-Pro (GPP)10, devoid of Hyp]",0.9 ± 0.4 % of maximum control,4.9 ± 0.7 % of maximum control,
